Experimental data: ChEMBL document CHEMBL1201862, “PubChem BioAssay data set” (2004)
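Where inhibition never reached the appropriate level, the endpoint shown equals the highest concentration tested. Otherwise, values were interpolated linearly from a five-concentration, 48-hour dose response in 96-well plates. GI50 marks 50% less growth.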 Active and inactive are the calls of the source. Rule as the data show it: active = GI50 up to about 1.1 µM and inactive = higher.

Legend:
Experiment in all cases: NCI tumour cell line growth inhibition, 48 h
CAKI-1 = test system: CAKI-1
HCC 2998 = test system: HCC 2998
HCT-116 = test system: HCT-116
HT-29 = test system: HT-29
IGROV-1 = test system: IGROV-1
Malme-3M = test system: Malme-3M
NCI/ADR-RES = test system: NCI/ADR-RES
OVCAR-3 = test system: OVCAR-3
OVCAR-5 = test system: OVCAR-5
PC-3 = test system: PC-3
RPMI-8226 = test system: RPMI-8226
SK-MEL-5 = test system: SK-MEL-5
SR = test system: SR
T47D = test system: T47D
TK-10 = test system: TK-10
UO-31 = test system: UO-31
SK-OV-3 = test system: SK-OV-3
U-251 = test system: U-251

Measured: GI50

CC1C[C@]2(C)C(NCCN)=Nc3ccccc3[C@@H]2N(C)c2ccccc21 (stereo partly specified)
inactive: CAKI-1 15.5 µM | HCC 2998 2.9 µM | HCT-116 8.32 µM | HT-29 3.36 µM | IGROV-1 14.1 µM | Malme-3M 3.72 µM | NCI/ADR-RES 26.4 µM | OVCAR-3 11.1 µM | OVCAR-5 14 µM | PC-3 12.9 µM | RPMI-8226 14.1 µM | SK-MEL-5 13.7 µM | SR 2.81 µM | T47D 15.1 µM | TK-10 9.29 µM | UO-31 11.2 µM

O=[N+]([O-])/C(C(Cl)=C(Cl)Cl)=C(\SCc1ccccc1)N1CCCCC1
inactive: CAKI-1 > 100 µM | HCC 2998 23.4 µM | HCT-116 16.3 µM | HT-29 36.6 µM | IGROV-1 24.6 µM | Malme-3M 12.2 µM | OVCAR-3 14.1 µM | OVCAR-5 20.4 µM | PC-3 20 µM | RPMI-8226 11.5 µM | SK-MEL-5 15.8 µM | SK-OV-3 40 µM | SR 8.34 µM | T47D 8.43 µM | TK-10 38.4 µM | U-251 43.8 µM | UO-31 24.2 µM

Cc1c(NC(=O)CCCl)c(=O)oc2c(C)c3occc(=O)c3cc12
inactive: CAKI-1 42.1 µM | HCC 2998 > 100 µM | HCT-116 92.7 µM | HT-29 > 100 µM | IGROV-1 97.5 µM | Malme-3M 23.5 µM | NCI/ADR-RES > 100 µM | OVCAR-5 > 100 µM | RPMI-8226 81.7 µM | SK-MEL-5 36.8 µM | SK-OV-3 86.9 µM | SR 80.4 µM | T47D 77.4 µM | TK-10 49.2 µM | U-251 67.6 µM | UO-31 36.1 µM

CCOC(=O)c1c(SC(=O)c2ccc(C(C)(C)C)cc2)n(-c2ccccc2)c(=S)n(-c2ccccc2)c1=O
inactive: CAKI-1 > 100 µM | HCC 2998 > 100 µM | HCT-116 > 100 µM | HT-29 > 100 µM | IGROV-1 > 100 µM | Malme-3M > 100 µM | NCI/ADR-RES > 100 µM | OVCAR-3 > 100 µM | OVCAR-5 > 100 µM | PC-3 > 100 µM | SK-OV-3 > 100 µM | SR > 100 µM | T47D > 100 µM | TK-10 > 100 µM | U-251 > 100 µM

O=C(CC(C(=O)c1cccs1)c1ccsc1)c1ccccc1 (stereo unspecified)
inactive: CAKI-1 > 100 µM | HCC 2998 > 100 µM | HCT-116 38.3 µM | HT-29 > 100 µM | IGROV-1 > 100 µM | NCI/ADR-RES 25.1 µM | OVCAR-3 > 100 µM | OVCAR-5 > 100 µM | RPMI-8226 48.8 µM | SK-MEL-5 76.9 µM | SK-OV-3 > 100 µM | SR 66.1 µM | T47D 24.7 µM | TK-10 > 100 µM | U-251 > 100 µM | UO-31 37.8 µM

CCn1c2nc(=O)n(CCCCCCCCSC(c3ccccc3)(c3ccccc3)c3ccccc3)c(=O)c-2nc2ccccc21
inactive: CAKI-1 5.22 µM | HCC 2998 2.67 µM | HCT-116 3.7 µM | HT-29 2.74 µM | IGROV-1 31.3 µM | NCI/ADR-RES > 100 µM | OVCAR-3 6.7 µM | OVCAR-5 > 100 µM | PC-3 4.9 µM | RPMI-8226 4.22 µM | SK-MEL-5 3.44 µM | SK-OV-3 82.8 µM | SR 2.61 µM | T47D 8.05 µM | TK-10 43.9 µM | U-251 19 µM | UO-31 6.65 µM

CC(=O)/C(=C\c1ccco1)C(=O)Nc1ccccc1
inactive: CAKI-1 > 100 µM | HCC 2998 > 100 µM | HCT-116 > 100 µM | HT-29 > 100 µM | IGROV-1 > 100 µM | Malme-3M > 100 µM | OVCAR-3 > 100 µM | RPMI-8226 > 100 µM | SK-MEL-5 > 100 µM | SK-OV-3 > 100 µM | SR > 100 µM | TK-10 > 100 µM | U-251 > 100 µM | UO-31 > 100 µM

COc1ccc(C2C(=O)c3c(OC)cc(OC)cc3OC2c2cccnc2)cc1 (stereo unspecified)
inactive: CAKI-1 > 100 µM | HCC 2998 > 100 µM | HCT-116 > 100 µM | HT-29 71.3 µM | IGROV-1 > 100 µM | Malme-3M 67.9 µM | NCI/ADR-RES > 100 µM | OVCAR-3 > 100 µM | OVCAR-5 > 100 µM | PC-3 > 100 µM | SK-MEL-5 > 100 µM | SK-OV-3 > 100 µM | SR 37.6 µM | T47D > 100 µM | TK-10 > 100 µM | UO-31 32.2 µM

[O-][N+]1=NC(c2ccccc2)=C1c1ccccc1
inactive: CAKI-1 > 50 µM | HCT-116 > 50 µM | HT-29 > 50 µM | IGROV-1 > 50 µM | Malme-3M > 50 µM | NCI/ADR-RES > 50 µM | OVCAR-3 > 50 µM | OVCAR-5 > 50 µM | PC-3 > 50 µM | RPMI-8226 > 50 µM | SK-MEL-5 > 50 µM | SK-OV-3 > 50 µM | TK-10 > 50 µM | U-251 > 50 µM | UO-31 > 50 µM

CN/C(=N\CCSCc1nc[nH]c1C)NC#N [CIMETIDINE]
inactive: CAKI-1 > 100 µM | HCC 2998 > 100 µM | HCT-116 > 100 µM | HT-29 > 100 µM | IGROV-1 > 100 µM | Malme-3M > 100 µM | NCI/ADR-RES > 100 µM | OVCAR-3 > 100 µM | OVCAR-5 > 100 µM | PC-3 > 100 µM | SK-MEL-5 > 100 µM | SK-OV-3 > 100 µM | SR > 100 µM | T47D > 100 µM | U-251 > 100 µM | UO-31 > 100 µM

CSC1=Nc2ccccc2N=C(c2ccc(Cl)cc2)C1
inactive: CAKI-1 22 µM | HCC 2998 > 10 µM | HCT-116 26.5 µM | HT-29 23 µM | IGROV-1 22.8 µM | Malme-3M 35.2 µM | OVCAR-3 33.3 µM | OVCAR-5 27.8 µM | RPMI-8226 33.4 µM | SK-MEL-5 24.2 µM | SK-OV-3 73.3 µM | SR 32.1 µM | U-251 33.4 µM | UO-31 24.5 µM

CO[C@@H]1C=C[C@@]23c4cc5c(cc4CN(C[C@@H]2O)[C@H]3C1)OCO5 [(+)-HAEMANTHAMINE]
inactive: CAKI-1 6.22 µM | HCC 2998 15.6 µM | HT-29 10.4 µM | IGROV-1 23.1 µM | Malme-3M 14.6 µM | OVCAR-3 46.6 µM | OVCAR-5 41.9 µM | RPMI-8226 29.6 µM | SK-MEL-5 > 10 µM | SK-OV-3 19.5 µM | SR 15 µM | TK-10 30.8 µM | U-251 15 µM | UO-31 16.5 µM
